We go through five molecules from paper PMC7419507, “In vitro Cas9-assisted editing of modular polyketide synthase genes to produce desired natural product derivatives” (Nature Communications, 2020).

The assay concerns the target T1, FKBP12 and mTOR (Homo sapiens, UniProt P42345+P62942).
T1 construct: host or cells: HeLa cells
The assay is described as follows: Fluoppi analysis: induction of FKBP12-mTOR complex formation in transfected HeLa cells. Format: cell-based. Particulars: for Foci intensity: raw data, one replicate per line. In short, it runs like this: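 HeLa cells co-transfected with phAG-mTOR and pAsh-FKBP12, seeded 3000 cells/well, then compound-treated 1 h after 24 h at 37 °C. Fixed, Hoechst-stained, imaged by high-content microscopy; foci fluorescence normalized to total cell fluorescence, EC50 computed.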

Setting [1] is: Fluoppi, HeLa cells, 1 h treatment, three independent biological replicates, read-out: EC50, induction of the formation of FKBP-mTOR complex.

Several values for one entry are separate records, joined by “and”; a condition that tells them apart may be missing. Identical values can stand only once. Entries after “also recorded” stand apart in the source; their conditions may differ. Like-named read-outs stand apart in the source and are kept apart here.

T1 sequence (P42345 2025-2114 limits assumed): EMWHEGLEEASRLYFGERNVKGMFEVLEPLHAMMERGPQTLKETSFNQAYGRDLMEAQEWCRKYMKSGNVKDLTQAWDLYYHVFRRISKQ
T1 sequence (P62942 whole entry): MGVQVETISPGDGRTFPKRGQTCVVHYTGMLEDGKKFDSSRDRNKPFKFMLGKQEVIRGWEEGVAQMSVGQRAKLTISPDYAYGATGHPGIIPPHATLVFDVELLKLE

As for `COC1CC2CCC(C)C(O)(O2)C(=O)C(=O)N2CCCCC2C(=O)OC(C(C)CC2CCC(O)C(OC)C2)CC(O)CC(=O)C(C)C=C(C)C(O)CC(=O)C(C)CC(C)C=CC=CC=C1C` (centres unmarked) [Compound 13], the “PPI-inducing (binding enhancing) activity between FKBP12 and mTOR compared with rapamycin (1), in words” value (Fluoppi) is “relatively weaker activities”. Besides, the EC50 (as a rule, the concentration at which the effect is half-maximal) under setting [1] came to 73 nM. Further, the Foci intensity (conc 9.53674e-5 uM) is 0.02036 and 0.008593 and 0.006167; the Foci intensity (conc 0.000190735 uM) was 0.01432 and 0.008145 and 0.01977; the Foci intensity (conc 0.00038147 uM) is 0.01002 and 0.01191 and 0.006949; the Foci intensity (conc 0.000762939 uM) was 0.02361 and 0.0319 and 0.02031; the Foci intensity (conc 0.00152588 uM) is 0.02629 and 0.01654 and 0.01268; the Foci intensity (conc 0.00305176 uM) was 0.02214 and 0.02006 and 0.01134. In addition, the Foci intensity (conc 0.00610352 uM) was 0.03874 and 0.01998 and 0.01509; the Foci intensity (conc 0.012207 uM) was 0.01596 and 0.01655 and 0.01094; the Foci intensity (conc 0.0244141 uM) was 0.04032 and 0.02924 and 0.04626; the Foci intensity (conc 0.0488281 uM) is 0.1206 and 0.1281 and 0.1053; the Foci intensity (conc 0.0976562 uM) is 0.3145 and 0.2601 and 0.1852; the Foci intensity (conc 0.195312 uM) is 0.3854 and 0.3277 and 0.371. Moreover, the Foci intensity (conc 0.390625 uM) was 0.4069 and 0.3307 and 0.3864; the Foci intensity (conc 0.78125 uM) is 0.4181 and 0.3809 and 0.3423; the Foci intensity (conc 1.5625 uM) was 0.3991 and 0.3532 and 0.4458; the Foci intensity (conc 3.125 uM) was 0.3573 and 0.4306 and 0.409; the Foci intensity (conc 6.25 uM) is 0.3647 and 0.3805 and 0.3539; the Foci intensity (conc 12.5 uM) was 0.3743 and 0.3421 and 0.396. The Foci intensity (conc 25 uM) is 0.3317 and 0.3763 and 0.373; the Foci intensity (conc 50 uM) was 0.3749 and 0.3065 and 0.4374.

As for `COC1CC2CCC(C)C(O)(O2)C(=O)C(=O)N2CCCCC2C(=O)OC(C(C)CC2CCC(O)C(OC)C2)CC(=O)C(C)C=C(C)C(O)CC(=O)C(C)C=C(C)C=CC=CC=C1C` (centres unmarked) [Compound 14], the “PPI-inducing (binding enhancing) activity between FKBP12 and mTOR compared with rapamycin (1), in words” value (Fluoppi) is “much less potent than 1”. For the same molecule, under setting [1], the EC50 stood at 2130 nM. For the same molecule, the Foci intensity by setting is: (conc 9.53674e-5 uM) 0.01583 and 0.01285 and 0.01813; (conc 0.000190735 uM) 0.02463 and 0.01296 and 0.02679; (conc 0.00038147 uM) 0.01747 and 0.03336 and 0.009483; (conc 0.000762939 uM) 0.01101 and 0.009441 and 0.01241; (conc 0.00152588 uM) 0.01354 and 0.009078 and 0.03888; (conc 0.00305176 uM) 0.02172 and 0.01712 and 0.01571. For the same molecule, the Foci intensity is 0.01274 and 0.01148 and 0.02185 (conc 0.00610352 uM); 0.01853 and 0.03131 and 0.01125 (conc 0.012207 uM); 0.04 and 0.01743 and 0.009054 (conc 0.0244141 uM); 0.01856 and 0.02257 and 0.02853 (conc 0.0488281 uM); 0.02191 and 0.01721 and 0.01479 (conc 0.0976562 uM); 0.01663 and 0.02497 and 0.01905 (conc 0.195312 uM). The Foci intensity was 0.01986 and 0.02708 and 0.02914 (conc 0.390625 uM); 0.02045 and 0.02304 and 0.03319 (conc 0.78125 uM); 0.09025 and 0.08153 and 0.07652 (conc 1.5625 uM); 0.2188 and 0.1724 and 0.1954 (conc 3.125 uM); 0.2549 and 0.2832 and 0.2819 (conc 6.25 uM); 0.2175 and 0.1877 and 0.2688 (conc 12.5 uM). Further, the Foci intensity reads like this: (conc 25 uM) 0.2553 and 0.272 and 0.2457; (conc 50 uM) 0.2721 and 0.2164 and 0.2636.

Molecule `COC1CC2CCC(C)C(O)(O2)C(=O)C(=O)N2CCCCC2C(=O)OC(C(C)CC2CCC(O)C(OC)C2)CC(=O)C(C)C=C(C)C(O)C(OC)C(=O)C(C)CC(C)C=CCCC=C1C` (centres unmarked) [Compound 15, 19,20-dihidro-rapamycin] had an EC50 of 6.3 nM. In addition, the “PPI-inducing (binding enhancing) activity between FKBP12 and mTOR compared with rapamycin (1), in words” value (Fluoppi) is on record as “as potent as rapamycin; also recorded: comparable level to that of rapamycin”. In addition, the Foci intensity (conc 9.53674e-5 uM) was 0.01733 and 0.01067 and 0.005693. Moreover, the Foci intensity (conc 0.000190735 uM) was 0.01213 and 0.0332 and 0.01291. Also, the Foci intensity (conc 0.00038147 uM) was 0.02253 and 0.02952 and 0.01485. For the same molecule, the Foci intensity (conc 0.000762939 uM) was 0.009661 and 0.01831 and 0.03236. In addition, where the note is “conc 0.00152588 uM”, the Foci intensity is 0.02962 and 0.01659 and 0.0505. Further, the Foci intensity (conc 0.00305176 uM) is 0.04113 and 0.07899 and 0.06427. Moreover, the Foci intensity (conc 0.00610352 uM) was 0.1575 and 0.2102 and 0.171. Moreover, the Foci intensity (conc 0.012207 uM) was 0.3436 and 0.3356 and 0.3668. For the setting “conc 0.0244141 uM”, the Foci intensity is 0.3409 and 0.4046 and 0.3885. Also, the Foci intensity (conc 0.0488281 uM) was 0.3546 and 0.3355 and 0.3935. Further, the Foci intensity (conc 0.0976562 uM) is 0.3693 and 0.3135 and 0.3917. Further, where the note is “conc 0.195312 uM”, the Foci intensity was 0.3656 and 0.4341 and 0.3989. Further, the Foci intensity (conc 0.390625 uM) is 0.405 and 0.3385 and 0.3714. In addition, the Foci intensity (conc 0.78125 uM) was 0.3465 and 0.4349 and 0.4007. Moreover, the Foci intensity (conc 1.5625 uM) is 0.3165 and 0.3834 and 0.336. Also, the Foci intensity (conc 3.125 uM) was 0.3857 and 0.3532 and 0.3973. Also, the Foci intensity (conc 6.25 uM) is 0.3637 and 0.3694 and 0.3083. The Foci intensity (conc 12.5 uM) is 0.3396 and 0.3224 and 0.3917. Further, the Foci intensity (conc 25 uM) was 0.3402 and 0.3226 and 0.4132. For the same molecule, the Foci intensity (conc 50 uM) was 0.4382 and 0.3564 and 0.4638.

Take `COC1CC2CCC(C)C(O)(O2)C(=O)C(=O)N2CCCCC2C(=O)OC(C(C)CC2CCC(O)C(OC)C2)CCC(C)C=C(C)C(O)C(OC)C(=O)C(C)CC(C)C=CC=CC=C1C` (centres unmarked) [Compound 16, 32-desketorapamycin]: the “PPI-inducing (binding enhancing) activity between FKBP12 and mTOR compared with rapamycin (1), in words” value (Fluoppi) is “relatively weaker activities”. For the same molecule, the EC50 under setting [1] is 38 nM. In addition, the Foci intensity is, setting by setting: (conc 9.53674e-5 uM) 0.01132 and 0.0225 and 0.02884; (conc 0.000190735 uM) 0.02797 and 0.01973 and 0.01419; (conc 0.00038147 uM) 0.04487 and 0.01438 and 0.009614; (conc 0.000762939 uM) 0.009583 and 0.01833 and 0.008004; (conc 0.00152588 uM) 0.008334 and 0.01713 and 0.01044; (conc 0.00305176 uM) 0.03307 and 0.01421 and 0.0165. Also, the Foci intensity runs as follows: (conc 0.00610352 uM) 0.02498 and 0.01872 and 0.01859; (conc 0.012207 uM) 0.05798 and 0.0563 and 0.05141; (conc 0.0244141 uM) 0.05792 and 0.05718 and 0.05874; (conc 0.0488281 uM) 0.2264 and 0.3107 and 0.3692; (conc 0.0976562 uM) 0.3743 and 0.3092 and 0.3931; (conc 0.195312 uM) 0.3634 and 0.4076 and 0.3212. In addition, the Foci intensity was 0.4389 and 0.407 and 0.4337 (conc 0.390625 uM); 0.46 and 0.2978 and 0.3103 (conc 0.78125 uM); 0.3578 and 0.3604 and 0.4124 (conc 1.5625 uM); 0.4619 and 0.4071 and 0.4306 (conc 3.125 uM); 0.3337 and 0.3579 and 0.3756 (conc 6.25 uM); 0.4107 and 0.3542 and 0.4482 (conc 12.5 uM). For the same molecule, the Foci intensity (conc 25 uM) is 0.3853 and 0.4351 and 0.4313; the Foci intensity (conc 50 uM) was 0.3983 and 0.3475 and 0.366.

In the case of `CO[C@@H]1C[C@H](C[C@@H](C)[C@@H]2CC(=O)[C@H](C)/C=C(\C)[C@@H](O)[C@@H](OC)C(=O)[C@H](C)C[C@H](C)/C=C/C=C/C=C(\C)[C@H](O)C[C@@H]3CC[C@@H](C)[C@@](O)(O3)C(=O)C(=O)N3CCCC[C@H]3C(=O)O2)CC[C@H]1O` [Compound 17, (16R)-16-O-demethyl rapamycin], the “PPI-inducing (binding enhancing) activity between FKBP12 and mTOR compared with rapamycin (1), in words” value (Fluoppi) was “relatively weaker activities”. Besides, the EC50 under setting [1] is 58 nM. Moreover, the Foci intensity reads like this: (conc 9.53674e-5 uM) 0.008575 and 0.02543 and 0.01782; (conc 0.000190735 uM) 0.01164 and 0.0145 and 0.01487; (conc 0.00038147 uM) 0.01856 and 0.01046 and 0.003947; (conc 0.000762939 uM) 0.01936 and 0.005776 and 0.02867; (conc 0.00152588 uM) 0.005895 and 0.00599 and 0.02244; (conc 0.00305176 uM) 0.01605 and 0.01212 and 0.008772. The Foci intensity is, setting by setting: (conc 0.00610352 uM) 0.0303 and 0.01224 and 0.02086; (conc 0.012207 uM) 0.01472 and 0.01188 and 0.01532; (conc 0.0244141 uM) 0.02138 and 0.01399 and 0.02345; (conc 0.0488281 uM) 0.1099 and 0.1021 and 0.1573; (conc 0.0976562 uM) 0.2733 and 0.3147 and 0.3434; (conc 0.195312 uM) 0.354 and 0.3591 and 0.4502. The Foci intensity by setting is: (conc 0.390625 uM) 0.4005 and 0.429 and 0.3736; (conc 0.78125 uM) 0.395 and 0.3804 and 0.4169; (conc 1.5625 uM) 0.3124 and 0.2927 and 0.3257; (conc 3.125 uM) 0.3411 and 0.3385 and 0.2558; (conc 6.25 uM) 0.3119 and 0.3692 and 0.3726; (conc 12.5 uM) 0.3802 and 0.3948 and 0.3075. Moreover, the Foci intensity is, setting by setting: (conc 25 uM) 0.3555 and 0.3578 and 0.2982; (conc 50 uM) 0.2808 and 0.2653 and 0.2658.
